Values joined by “and” are separate entries in the source; they are usually repeats but may differ in a detail not shown here. Identical values can stand only once. Marks after values point to notes of the source that are not given here.
What was measured:
[1] = set-up: method as in PMID 30274224; conditions: methanolic solutions, c = 8.0 × 10^−5 M; cited from earlier work
S. aureus ATCC 29213 [2] = assay: crystal violet uptake (membrane permeability); format: cell-based, Staphylococcus aureus; conditions: 64 µg/mL, 1 h; two-way ANOVA, Tukey's test, p < 0.05
Protocol: The alternation in membrane permeability was detected by crystal violet assay. Bacterial suspension treated by compounds 1f, 1g, and 1h (all 64 µg/mL) for 1 h was prepared. The uptake of crystal violet was expressed as a percentage compared to the original crystal violet solution.
The method of crystal violet uptake was used to study membrane alteration. Bacterial suspension was cultivated to log phase in CaMH and then harvested at 4500 rpm for 5 min. The cells were washed twice and resuspended in PBS containing 64 µg/mL of the tested compounds. […] A growth control without antibiotics and a control containing the same amount of DMSO as treated tubes were included. The tubes were cultivated at 37 °C for 1 h. After that, the tubes were centrifuged at 4500 rpm for 15 min and washed twice in PBS. The cells were resuspended in PBS containing crystal violet (10 µg/mL). After 15 min incubation at 37 °C and centrifugation (15 min, 4500 rpm), the absorbance of supernatant at 595 nm was measured. The experiment was repeated three times, and the results were averaged. The percentage of crystal violet uptake was counted according to the equation:(1) % of uptake = OD595 of sample/OD595 of crystal violet solution × 100

[3] = test system: vancomycin-resistant enterococci VRE 342B; assay: MIC, broth microdilution; format: cell-based, Enterococcus faecalis; conditions: Enterococcus; VRE1 = VRE 342B; read-out: MICs
Procedure, shortened: (§1)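 Broth microdilution in CaMH (staphylococci) or BHI (enterococci), 5 × 10^5 CFU/mL per well, 37 °C aerobic overnight.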

E. faecalis ATCC 29212 = assay: MIC, broth microdilution; format: cell-based, Enterococcus faecalis; conditions: Enterococcus faecalis, ATCC 29212 / ATCC 29213; EF = E. faecalis ATCC 29213
Procedure, shortened: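 Each strain, standardized to 0.5 McFarland and brought to a final 5 × 10^5 CFU/mL, was exposed to compound dilutions in genus-appropriate medium (cation-adjusted MH for S. aureus, BHI for enterococci). It was then held overnight under air at 37 °C before growth inhibition was scored.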

[4] = test system: vancomycin-resistant enterococci VRE 368; assay: MIC, broth microdilution; format: cell-based, Enterococcus faecalis; conditions: Enterococcus; VRE2 = VRE 368; read-out: MICs
Procedure, shortened: as §1

[5] = test system: vancomycin-resistant enterococci VRE 725B; assay: MIC, broth microdilution; format: cell-based, Enterococcus faecalis; conditions: Enterococcus; VRE3 = VRE 725B; read-out: MICs
Procedure, shortened: as §1

MRSA 63718 = assay: time-kill study; format: cell-based, Staphylococcus aureus; conditions: MRSA1
Excerpt: (§2) Time-kill studies are used to evaluate the dynamics of antibacterial activity. As mentioned above, a pre-test to determine minimum bactericidal concentration (MBC) by sub-cultivation of aliquots on agar was made (see Section 3.4). […] Time-kill studies were made with methicillin-susceptible S. aureus ATCC 29213 and methicillin-resistant MRSA 63718, vancomycin-susceptible E. faecalis ATCC 29212, and all three VRE isolates. Vancomycin was used as a control (Table 6).
(§3) The method of time-kill curves was used to study the bactericidal effect of selected compounds. […] The experiment was performed with S. aureus ATCC 29213, MRSA 63718, E. faecalis ATCC 29212, and all VRE isolates. […] The tubes were inoculated by bacterial inoculum in the exponential phase of growth to get a final concentration of 7.5 × 10^6 CFU/mL. The tubes were incubated statically at 37 °C. Immediately after inoculation and after 4, 6, 8, and 24 h, 100 µL of the sample was serially diluted (1:10) in PBS. Then, 2 × 20 µL from each dilution were put onto a Mueller–Hinton agar plate and cultivated at 37 °C for 24 h. After incubation, CFUs of dilutions containing 5–50 colonies were counted. Results were expressed as a decrease of log10(CFU) in each time compared to the starting inoculum. Bactericidal effect is defined as a −3log decrease of CFU/mL compared to the growth control in time 0. The test was made in duplicate on two separate occasions, and the results were averaged. The growth curves with error bars are shown in Figures S1 and S2 in Supplementary Materials.

S. aureus ATCC 29213 [6] = assay: time-kill study; format: cell-based, Staphylococcus aureus; conditions: SA
Excerpt: as §2, §3

CCCCCCCOc1cccc(NC(=O)OC(CN(CCC)CCC)CN2CCCC2)c1.Cl.Cl (stereo not drawn) [1h, 1-[3-(Dipropylammonio)-2-({[3-(heptyloxy)phenyl]carbamoyl}oxy)propyl]pyrrolidinium dichloride]
log ε2 (Ch-T) [1]: 4.27 | crystal violet uptake compared with 1% Tween 20 (positive control) (S. aureus ATCC 29213 [2]): No statistically significant difference | MIC [3]: 4 µg/mL and 7.51 µM | MIC (E. faecalis ATCC 29212): 8 µg/mL and 15 µM | MIC [4]: 4 µg/mL and 7.51 µM | MIC [5]: 4 µg/mL and 7.51 µM | Log10 Difference in CFU/mL from Inoculum (MRSA 63718; 1 × MIC, 4 h): −0.73 * log10 CFU/mL | Log10 Difference in CFU/mL from Inoculum (MRSA 63718; 1 × MIC, 6 h): −0.11 log10 CFU/mL | Log10 Difference in CFU/mL from Inoculum (MRSA 63718; 1 × MIC, 8 h): 0.98 log10 CFU/mL | Log10 Difference in CFU/mL from Inoculum (MRSA 63718; 1 × MIC, 24 h): 1.58 log10 CFU/mL | Log10 Difference in CFU/mL from Inoculum (MRSA 63718; 2 × MIC, 4 h): −0.92 * log10 CFU/mL | Log10 Difference in CFU/mL from Inoculum (MRSA 63718; 2 × MIC, 6 h): −0.42 * log10 CFU/mL | Log10 Difference in CFU/mL from Inoculum (MRSA 63718; 2 × MIC, 8 h): −0.13 log10 CFU/mL | Log10 Difference in CFU/mL from Inoculum (MRSA 63718; 2 × MIC, 24 h): 1.62 log10 CFU/mL | Log10 Difference in CFU/mL from Inoculum (MRSA 63718; 4 × MIC, 4 h): −2.48 * log10 CFU/mL | Log10 Difference in CFU/mL from Inoculum (MRSA 63718; 4 × MIC, 6 h): −2.40 * log10 CFU/mL | Log10 Difference in CFU/mL from Inoculum (MRSA 63718; 4 × MIC, 8 h): −2.08 * log10 CFU/mL | Log10 Difference in CFU/mL from Inoculum (MRSA 63718; 4 × MIC, 24 h): 1.35 log10 CFU/mL | Log10 Difference in CFU/mL from Inoculum (S. aureus ATCC 29213 [6]; 1 × MIC, 4 h): 0.08 log10 CFU/mL | Log10 Difference in CFU/mL from Inoculum (S. aureus ATCC 29213 [6]; 1 × MIC, 6 h): 0.31 log10 CFU/mL | Log10 Difference in CFU/mL from Inoculum (S. aureus ATCC 29213 [6]; 1 × MIC, 8 h): 0.50 log10 CFU/mL | Log10 Difference in CFU/mL from Inoculum (S. aureus ATCC 29213 [6]; 1 × MIC, 24 h): 2.07 log10 CFU/mL | Log10 Difference in CFU/mL from Inoculum (S. aureus ATCC 29213 [6]; 2 × MIC, 4 h): 0.05 log10 CFU/mL | Log10 Difference in CFU/mL from Inoculum (S. aureus ATCC 29213 [6]; 2 × MIC, 6 h): 0.10 log10 CFU/mL | Log10 Difference in CFU/mL from Inoculum (S. aureus ATCC 29213 [6]; 2 × MIC, 8 h): 0.05 log10 CFU/mL | Log10 Difference in CFU/mL from Inoculum (S. aureus ATCC 29213 [6]; 2 × MIC, 24 h): 2.01 log10 CFU/mL | Log10 Difference in CFU/mL from Inoculum (S. aureus ATCC 29213 [6]; 4 × MIC, 4 h): −0.25 log10 CFU/mL | Log10 Difference in CFU/mL from Inoculum (S. aureus ATCC 29213 [6]; 4 × MIC, 6 h): −0.13 log10 CFU/mL | Log10 Difference in CFU/mL from Inoculum (S. aureus ATCC 29213 [6]; 4 × MIC, 8 h): −0.08 log10 CFU/mL | Log10 Difference in CFU/mL from Inoculum (S. aureus ATCC 29213 [6]; 4 × MIC, 24 h): 1.93 log10 CFU/mL
